According to article PMC12627627 (Nature Communications, 2025):
Values joined by “and” are separate entries in the source; they are usually repeats but may differ in a detail not shown here. Identical values can stand only once.

Legend:
[1] = molecular target: T1, RyR1 R2163C (Oryctolagus cuniculus, UniProt P11716, R2163C); experiment: Time-lapse [Ca2+]ER measurement, HEK293 cells expressing RyR1 R2163C; assay type: cell-based; conditions: for ER luminal [Ca2+] change (F/F0): Fig. 5D source data, RyR1-R2163C
T1 construct: expressed in transfected cells
Description: HEK293 cells stably expressing R-CEPIA1er and RyRs (WT RyR1, RyR1-W881A, RyR1-W995A, RyR1-R2163C, and WT RyR2)[26],[27] were used in this study. Briefly, the cells were seeded at a density of 2 × 10⁴ cells/well in a 96-well black, clear-bottom plate (Corning). Doxycycline (2 µg/mL) was added 12 h after seeding, and the medium was replaced 24 h later with HEPES-buffered Krebs solution (5 mM HEPES, pH 7.4; 140 mM NaCl; 5 mM KCl; 2 mM CaCl₂; 1 mM MgCl₂; and 11 mM glucose). Fluorescence measurements were conducted using a FlexStation 3 fluorometer (Molecular Devices) at 37 °C. The R-CEPIA1er was excited at 560 nm, emitted at 610 nm, and captured every 10 seconds over 300 seconds. […] The fluorescence changes (F/F₀) were calculated by dividing the average fluorescence of the last 100 seconds (F) by that of the first 100 seconds (F₀). All measurements were performed in triplicate.

[2] = molecular target: T2, R12 domain of RyR3 (Homo sapiens, UniProt Q15413); experiment: ITC, R12 domain of RyR3; assay type: binding
T2 construct: RyR1 854–1054, RyR2 865–1065, RyR3 853–1053; made in house; host or cells: E. coli BL21 (DE3)
T2 sequence (Q15413 853-1053): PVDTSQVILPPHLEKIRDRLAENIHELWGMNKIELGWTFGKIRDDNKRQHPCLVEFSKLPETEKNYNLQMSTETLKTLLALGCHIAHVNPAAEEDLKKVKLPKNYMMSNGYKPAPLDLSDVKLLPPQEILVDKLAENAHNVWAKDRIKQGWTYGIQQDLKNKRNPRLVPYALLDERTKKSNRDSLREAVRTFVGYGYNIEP
Description: (§1) The plasmids were subsequently transformed into E. coli BL21 (DE3) cells (NEB, USA) and cultured in Luria-Bertani (LB) media at 37 °C. Protein expression was induced with 0.4 mM isopropyl β-D-thiogalactoside (IPTG) when the optical density (OD)600 reached ~0.8, followed by incubation at 18 °C for 12 h. The cells were harvested via centrifugation at 5,000 × g for 15 min at 4 °C and homogenized in Buffer A (10 mM HEPES, pH 7.4, 250 mM KCl) supplemented with 25 µg/mL DNaseI, 25 µg/mL lysozyme, 1 mM phenylmethylsulfonyl fluoride (PMSF), and 20 mM imidazole. The homogenate was centrifuged at 12,000 × g for 45 min, and the supernatant was filtered through a syringe filter (0.22 µm).
(§2) Purified R12 domain protein from the three RyR isoforms, fused with hexahistidine-tagged MBP (HMT-R12) was dialyzed overnight at 4 °C in ITC buffer (200 mM HEPES, pH 7.4, 150 mM KCl). ITC experiments were performed using a PEAQ-ITC instrument (Malvern, UK) at 25 °C with a stirring speed of 750 rpm. […] For the ternary binding experiments, 500 μM or 5 mM AMP-PCP/ADP was preincubated with both the titrants and titrates. […] The data was fit to a one-site fitting model after background buffer subtraction. The RyR1 R12 mutants were generated using a QuikChange mutagenesis kit (Stratagene) according to the manufacturer’s protocol, with primer sequences listed in Supplementary Table 3.

[3] = molecular target: T3, R12 domain of RyR1 (Homo sapiens, UniProt P21817); experiment: ITC, R12 domain of RyR1; assay type: binding
T3 construct: RyR1 854–1054, RyR2 865–1065, RyR3 853–1053; made in house; host or cells: E. coli BL21 (DE3)
T3 sequence (P21817 854-1054): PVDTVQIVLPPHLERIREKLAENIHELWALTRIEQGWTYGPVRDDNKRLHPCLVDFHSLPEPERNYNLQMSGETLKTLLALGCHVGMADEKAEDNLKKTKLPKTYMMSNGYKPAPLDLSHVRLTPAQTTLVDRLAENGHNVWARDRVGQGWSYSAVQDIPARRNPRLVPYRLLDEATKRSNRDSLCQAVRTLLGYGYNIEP
Description: as §1, §2

[4] = molecular target: T4, R12 domain of RyR2 (Homo sapiens, UniProt Q92736); experiment: ITC, R12 domain of RyR2; assay type: binding; conditions: absence or presence of AMP-PCP or ADP
T4 construct: RyR1 854–1054, RyR2 865–1065, RyR3 853–1053; made in house; host or cells: E. coli BL21 (DE3)
T4 sequence (Q92736 865-1065): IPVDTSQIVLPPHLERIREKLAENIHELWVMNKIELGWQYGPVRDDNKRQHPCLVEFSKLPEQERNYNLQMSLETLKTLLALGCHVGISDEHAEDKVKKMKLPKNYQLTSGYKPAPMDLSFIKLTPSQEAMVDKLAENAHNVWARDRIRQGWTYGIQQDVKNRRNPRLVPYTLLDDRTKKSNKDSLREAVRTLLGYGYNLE
Description: as §1, §2

SMILES: O=C(C[C@@H](NCCCO)C(=O)O)Nc1ccc2ccccc2c1 [RI-2]
- [Ca2+]ER change (F/F0) ([1]; 100 µM compound, compared with 2.5% DMSO, Fig. S10 source data, single replicates): 1.393 and 1.514 and 1.475
- ER luminal [Ca2+] change (F/F0) ([1]; RI-2 0.1 uM, single replicates): 0.9503 and 1.0903 and 0.9717
- ER luminal [Ca2+] change (F/F0) ([1]; RI-2 0.5 uM, single replicates): 0.9981 and 0.9736 and 1.043
- ER luminal [Ca2+] change (F/F0) ([1]; RI-2 1 uM, single replicates): 1.073 and 0.9956 and 0.9903
- ER luminal [Ca2+] change (F/F0) ([1]; RI-2 5 uM, single replicates): 1.035 and 0.9806 and 0.9738
- ER luminal [Ca2+] change (F/F0) ([1]; RI-2 10 uM, single replicates): 1.082 and 1.203 and 1.117
- ER luminal [Ca2+] change (F/F0) ([1]; RI-2 25 uM, single replicates): 1.365 and 1.221 and 1.3399
- ER luminal [Ca2+] change (F/F0) ([1]; RI-2 50 uM, single replicates): 1.514 and 1.709 and 1.462
- ER luminal [Ca2+] change (F/F0) ([1]; RI-2 75 uM, single replicates): 1.641 and 1.709 and 1.614
- ER luminal [Ca2+] change (F/F0) ([1]; RI-2 100 uM, single replicates): 1.752 and 1.723 and 1.637
- IC50 ([1]; HEK293 cells stably expressing RyR1 R2163C, ER Ca2+ fluorescence, dose-dependent): 28 µM
- Kd ([2]; RyR3 R12 + 500 µM ADP): 28.6 ± 18.7 µM
- No of Sites (N) ([2]; RyR3 R12 + 500 µM ADP): 0.509 ± 0.54
- ΔH ([2]; RyR3 R12 + 500 µM ADP): -6.40 ± 1.66 kcal/mol
- −TΔS ([2]; RyR3 R12 + 500 µM ADP): -0.27 kcal/mol
- Kd ([2]; RyR3 R12 + 500 µM AMP-PCP): 7.85 ± 2.69 µM
- No of Sites (N) ([2]; RyR3 R12 + 500 µM AMP-PCP): 0.604 ± 0.31
- ΔH ([2]; RyR3 R12 + 500 µM AMP-PCP): -3.25 ± 0.40 kcal/mol
- −TΔS ([2]; RyR3 R12 + 500 µM AMP-PCP): -3.72 kcal/mol
- Kd ([2]; RyR3 R12 + 5 mM ADP): 12.9 ± 6.2 µM
- No of Sites (N) ([2]; RyR3 R12 + 5 mM ADP): 0.694 ± 0.42
- ΔH ([2]; RyR3 R12 + 5 mM ADP): -11.9 ± 4.87 kcal/mol
- −TΔS ([2]; RyR3 R12 + 5 mM ADP): 5.75 kcal/mol
- Kd ([2]; RyR3 R12 + 5 mM AMP-PCP): 3.39 ± 0.83 µM
- No of Sites (N) ([2]; RyR3 R12 + 5 mM AMP-PCP): 0.508 ± 0.21
- ΔH ([2]; RyR3 R12 + 5 mM AMP-PCP): -4.58 ± 0.28 kcal/mol
- −TΔS ([2]; RyR3 R12 + 5 mM AMP-PCP): -2.89 kcal/mol
- No of Sites (N) ([2]; RyR3 R12, no nucleotide): 0.970 ± 0.19
- ΔH ([2]; RyR3 R12, no nucleotide): -16.2 ± 16.70 kcal/mol
- −TΔS ([2]; RyR3 R12, no nucleotide): 10.6 kcal/mol
- Kd ([2]; RyR3 R12, no nucleotide, ITC 25 °C): 178 ± 93.1 µM
- Kd ([3]; RyR1 R12 + 500 µM ADP): 49.1 ± 50.1 µM
- No of Sites (N) ([3]; RyR1 R12 + 500 µM ADP): 0.605 ± 0.21
- ΔH ([3]; RyR1 R12 + 500 µM ADP): -3.08 ± 0.20 kcal/mol
- −TΔS ([3]; RyR1 R12 + 500 µM ADP): -4.30 kcal/mol
- Kd ([3]; RyR1 R12 + 500 µM AMP-PCP): 1.75 ± 0.29 µM
- No of Sites (N) ([3]; RyR1 R12 + 500 µM AMP-PCP): 0.721 ± 0.12
- ΔH ([3]; RyR1 R12 + 500 µM AMP-PCP): -5.47 ± 0.17 kcal/mol
- −TΔS ([3]; RyR1 R12 + 500 µM AMP-PCP): -2.39 kcal/mol
- Kd ([3]; RyR1 R12 + 5 mM ADP): 3.86 ± 0.975 µM
- No of Sites (N) ([3]; RyR1 R12 + 5 mM ADP): 0.912 ± 0.43
- ΔH ([3]; RyR1 R12 + 5 mM ADP): -15.09 ± 11.60 kcal/mol
- −TΔS ([3]; RyR1 R12 + 5 mM ADP): 10.1 kcal/mol
- Kd ([3]; RyR1 R12 + 5 mM AMP-PCP): 0.56 ± 0.17 µM
- No of Sites (N) ([3]; RyR1 R12 + 5 mM AMP-PCP): 0.547 ± 0.43
- ΔH ([3]; RyR1 R12 + 5 mM AMP-PCP): -7.05 ± 0.69 kcal/mol
- −TΔS ([3]; RyR1 R12 + 5 mM AMP-PCP): -0.11 kcal/mol
- No of Sites (N) ([3]; RyR1 R12, no nucleotide): 0.519 ± 0.25
- ΔH ([3]; RyR1 R12, no nucleotide): -5.61 ± 0.73 kcal/mol
- −TΔS ([3]; RyR1 R12, no nucleotide): 0.944 kcal/mol
- Kd ([3]; RyR1 R12, no nucleotide, ITC 25 °C): 159 µM and 158 µM
- binding to RyR2 R12 domain by ITC [4]: no detectable binding
